Broadly, the Dmax is the greatest extent of degradation seen. For orientation: DC50 means the midpoint of the concentration-degradation curve. High values mean a less potent degrader, low ones a more potent degrader.

Assay [1] addresses T1, SMARCA4 (Homo sapiens, UniProt P51532).
T1 construct: endogenous in cells
Description: Cellular degradation assay, SMARCA4 (Table 1). The assay is classed as cell-based.

Assay [2] concerns the target T2, SMARCA2 (Homo sapiens, UniProt P51531).
T2 construct: endogenous in cells
Description: SMARCA2 Cellular Degradation Assay (Western blot analysis on Jess platform). The class given is cell-based. The note with it: for DC50 / Dmax: cellular degradation; for Fold Selectivity SMARCA4/2: ratio DC50 SMARCA4 / DC50 SMARCA2. Here is the method:
SMARCA2 Cellular Degradation Assay
Western Blot Analysis for SMARCA2 Degradation
Frozen cell pellets were thawed on ice and resuspended in RIPA lysis buffer (Millipore, Cat. No. 20-188) supplemented with 0.2% SDS (Fisher Scientific, Cat. No. 24730020), 200 mM β-glycerophosphate (Alfa Aesar, Cat. No. J62121), 500 mM NaF (Rigaku, Cat. No. 1008046), protease inhibitor (1 tablet per 10 mL, Sigma, Cat. No. 11836170001), 250 U/μL benzonase (Millipore, Cat. No. 71206), 200 mM sodium orthovanadate (FivePhoton, Cat. No. ActVO-4), and 100 mM PMSF (Sigma, Cat. No. 10837091001). 50 μL lysis buffer was used to lyse each pellet containing 5×10E5-1×10E6 live cells extracted from tumors. Lysates were centrifuged for 10 mins at 20,817×g and lysate supernatants were saved for further analysis. Protein levels were determined by the BCA Assay performed according to manufacturer's protocol (EMD Millipore, Cat. No. 71285-3). Samples were evaluated by Western blot analysis on the Jess Platform (ProteinSimple). Lysates were diluted with complete lysis buffer (as described above) and 5 μg of total proteins were loaded onto each capillary. Samples were prepared using the ProteinSimple EZ Standard Pack 1 (Cat. No. PS-ST01EZ-8; containing tubes with powdered (5×) Fluorescent Master Mix, DTT, and biotinylated ladder) and run using the ProteinSimple 25-Capillary Cartridge kit (Cat. No. SM-W004; containing 25-capillary cartridge Wash reagent, and 10× Sample Buffer reagent), the ProteinSimple Anti-Rabbit HRP Detection Module for Jess (Cat. No. DM-001; containing Antibody Diluent, anti-rabbit secondary antibody, Luminol-S, Peroxide, and Streptavidin-HRP), and the ProteinSimple Anti-Mouse NIR Detection Module for Jess (Cat. No. DM-009; containing Antibody Diluent, anti-mouse NIR secondary antibody, and Streptavidin-NIR) as the following describes. The DTT was reconstituted with 40 μL water to make a 400 mM solution, 20 μL of the DTT solution plus 20 μL of 10× Sample Buffer were added to reconstitute the 5× Fluorescent Master Mix, and 20 μL of H2O was used to reconstitute the biotinylated ladder. For each sample, lysate (4 μL) was combined with 5× Fluorescent Master Mix (1 μL) and heated at 95° C. for 5 minutes. Samples were cooled and stored on ice. Primary antibody solution was made using anti-SMARCA2 antibody (Abcam, Cat. No. 240648, 1:10) and anti-beta-Actin antibody (Cell Signaling Technology, Cat. No. 3700S, 1:25) in antibody diluent. The 25-capillary cartridges were prepared per standard ProteinSimple protocol with each sample in a column. For the biotinylated ladder in column 1, the following were added: 5 µL of ladder sample in Row A, 10 μL of antibody diluent in Rows B and C, 10 μL of Streptavidin-NIR in Row D, and 15 μL of a 50:50 Luminol-s/Peroxide solution in Row E. For each test sample (columns 2-25), the following were added per column: 5 μL of sample in Row A, 10 μL of antibody diluent in Row B, 10 μL of primary antibody solution in Row C, 10 μL of secondary antibody in Row D, and 15 μL of a 50:50 Luminol-S/Peroxide solution in Row E. 500 μL wash buffer was added to the wash buffer wells in the cartridge and cartridge was spun at 1000×g for 5 minutes prior to loading into the Jess. Samples were run using the Chemiluminescence and Fluorescence immunoassays in the ProteinSimple Compass for SimpleWestern program (version 5.0.0). After running, SMARCA2, actin, and background curves were identified in the Compass software; note that in the Compass software, the electropherograms are also visualized as bands for comparison with standard Western blot outputs. The electropherogram area reading for each sample curve was normalized to that of the corresponding actin curve per column following background (capillary background) subtraction using the following equation: […]
Following normalization, the percentage of SMARCA2 remaining per sample relative to the vehicle control was calculated as follows: […]

Each structure is given as a SMILES string.

T2 sequence (P51531 whole entry, species assumed): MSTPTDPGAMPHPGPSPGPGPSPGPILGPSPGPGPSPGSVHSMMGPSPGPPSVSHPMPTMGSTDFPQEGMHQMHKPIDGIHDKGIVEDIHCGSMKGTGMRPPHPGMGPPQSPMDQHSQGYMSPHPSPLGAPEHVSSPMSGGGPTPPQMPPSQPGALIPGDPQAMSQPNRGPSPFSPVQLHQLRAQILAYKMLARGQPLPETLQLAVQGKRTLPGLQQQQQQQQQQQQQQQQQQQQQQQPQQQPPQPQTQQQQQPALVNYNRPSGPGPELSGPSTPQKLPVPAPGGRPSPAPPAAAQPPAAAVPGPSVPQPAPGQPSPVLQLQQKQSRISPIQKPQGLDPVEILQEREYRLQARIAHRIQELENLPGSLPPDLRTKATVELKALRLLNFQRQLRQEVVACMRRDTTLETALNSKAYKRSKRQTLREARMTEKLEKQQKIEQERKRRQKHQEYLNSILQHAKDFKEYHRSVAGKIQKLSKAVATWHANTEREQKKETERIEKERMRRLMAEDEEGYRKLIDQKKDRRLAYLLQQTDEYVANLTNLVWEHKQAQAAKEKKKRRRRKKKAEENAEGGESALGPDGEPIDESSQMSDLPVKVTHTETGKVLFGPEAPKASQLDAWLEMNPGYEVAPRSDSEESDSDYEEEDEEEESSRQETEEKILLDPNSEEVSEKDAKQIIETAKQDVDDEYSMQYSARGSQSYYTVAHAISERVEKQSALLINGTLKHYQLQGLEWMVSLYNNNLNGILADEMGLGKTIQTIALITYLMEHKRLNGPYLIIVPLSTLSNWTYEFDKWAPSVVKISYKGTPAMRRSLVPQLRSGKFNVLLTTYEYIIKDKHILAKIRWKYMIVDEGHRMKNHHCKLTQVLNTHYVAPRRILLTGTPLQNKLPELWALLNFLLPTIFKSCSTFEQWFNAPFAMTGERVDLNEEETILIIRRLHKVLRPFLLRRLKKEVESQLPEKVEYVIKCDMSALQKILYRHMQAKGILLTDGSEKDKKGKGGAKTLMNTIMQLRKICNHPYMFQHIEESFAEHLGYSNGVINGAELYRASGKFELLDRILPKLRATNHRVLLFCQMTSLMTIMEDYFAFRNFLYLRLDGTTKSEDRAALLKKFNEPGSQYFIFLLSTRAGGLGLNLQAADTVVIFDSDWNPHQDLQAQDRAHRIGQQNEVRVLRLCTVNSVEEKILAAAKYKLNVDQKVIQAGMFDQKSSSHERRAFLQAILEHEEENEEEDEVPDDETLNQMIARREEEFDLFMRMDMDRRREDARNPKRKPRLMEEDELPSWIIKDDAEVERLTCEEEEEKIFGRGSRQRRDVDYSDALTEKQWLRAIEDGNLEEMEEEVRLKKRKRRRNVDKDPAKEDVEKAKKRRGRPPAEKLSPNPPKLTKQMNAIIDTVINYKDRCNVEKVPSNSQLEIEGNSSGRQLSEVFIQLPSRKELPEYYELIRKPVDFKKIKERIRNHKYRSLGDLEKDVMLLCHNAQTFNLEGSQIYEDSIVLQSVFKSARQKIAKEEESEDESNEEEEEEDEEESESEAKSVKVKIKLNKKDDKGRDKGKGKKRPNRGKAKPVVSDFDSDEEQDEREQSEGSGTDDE
T1 sequence (P51532 whole entry, species assumed): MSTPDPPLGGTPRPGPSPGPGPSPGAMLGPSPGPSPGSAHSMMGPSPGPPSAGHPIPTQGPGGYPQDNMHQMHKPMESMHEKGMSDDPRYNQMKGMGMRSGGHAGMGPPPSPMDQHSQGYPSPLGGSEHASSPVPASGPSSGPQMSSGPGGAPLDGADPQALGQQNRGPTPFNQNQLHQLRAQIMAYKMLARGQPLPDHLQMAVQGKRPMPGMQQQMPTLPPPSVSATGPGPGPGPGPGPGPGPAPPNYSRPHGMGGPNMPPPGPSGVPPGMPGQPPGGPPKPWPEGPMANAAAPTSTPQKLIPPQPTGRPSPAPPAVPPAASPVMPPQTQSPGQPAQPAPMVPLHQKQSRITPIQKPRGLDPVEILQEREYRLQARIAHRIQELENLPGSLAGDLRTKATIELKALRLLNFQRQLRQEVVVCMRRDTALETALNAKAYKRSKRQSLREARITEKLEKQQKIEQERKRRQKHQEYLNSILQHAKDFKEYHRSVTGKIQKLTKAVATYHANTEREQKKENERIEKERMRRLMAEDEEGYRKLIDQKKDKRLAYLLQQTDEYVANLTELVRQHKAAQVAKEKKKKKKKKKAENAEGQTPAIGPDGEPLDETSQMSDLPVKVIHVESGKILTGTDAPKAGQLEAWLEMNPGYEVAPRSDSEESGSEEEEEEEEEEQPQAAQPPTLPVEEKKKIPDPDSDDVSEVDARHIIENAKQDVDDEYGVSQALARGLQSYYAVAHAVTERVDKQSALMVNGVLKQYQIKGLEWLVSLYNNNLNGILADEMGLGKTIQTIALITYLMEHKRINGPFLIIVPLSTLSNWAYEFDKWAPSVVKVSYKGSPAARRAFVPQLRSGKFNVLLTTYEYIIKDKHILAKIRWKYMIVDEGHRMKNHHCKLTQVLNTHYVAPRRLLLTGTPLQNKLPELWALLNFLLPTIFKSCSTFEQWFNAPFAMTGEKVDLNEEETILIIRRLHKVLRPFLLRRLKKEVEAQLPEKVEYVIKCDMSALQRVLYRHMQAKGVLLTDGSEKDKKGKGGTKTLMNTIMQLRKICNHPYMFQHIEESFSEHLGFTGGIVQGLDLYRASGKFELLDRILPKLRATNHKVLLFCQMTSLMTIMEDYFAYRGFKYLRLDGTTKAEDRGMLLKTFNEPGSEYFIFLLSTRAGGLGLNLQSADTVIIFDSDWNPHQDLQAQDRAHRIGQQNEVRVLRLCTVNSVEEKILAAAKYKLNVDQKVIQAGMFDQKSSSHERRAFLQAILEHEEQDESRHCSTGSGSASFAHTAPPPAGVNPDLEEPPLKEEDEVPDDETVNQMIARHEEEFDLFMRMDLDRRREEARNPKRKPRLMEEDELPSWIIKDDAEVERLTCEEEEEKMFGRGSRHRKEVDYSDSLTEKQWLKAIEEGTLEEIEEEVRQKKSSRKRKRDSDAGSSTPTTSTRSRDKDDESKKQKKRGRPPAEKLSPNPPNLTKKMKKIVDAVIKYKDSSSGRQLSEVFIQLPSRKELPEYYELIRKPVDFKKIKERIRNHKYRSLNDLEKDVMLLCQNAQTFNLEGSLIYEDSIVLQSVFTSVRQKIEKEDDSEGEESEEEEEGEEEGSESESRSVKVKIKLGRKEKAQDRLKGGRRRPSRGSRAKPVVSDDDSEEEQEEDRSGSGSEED

In turn, `O=C1CC[C@H](c2ccc(N3CCC(CN4CCCN(C(=O)C5(c6ccccc6)CCN(c6cnnc(-c7ccccc7O)c6)CC5)CC4)CC3)cc2)C(=O)N1` [Example 46, (3R)-3-(4-{4-[(4-{1-[6-(2-hydroxyphenyl)pyridazin-4-yl]-4-phenylpiperidine-4-carbonyl}-1,4-diazepan-1-yl)methyl]piperidin-1-yl}phenyl)piperidine-2,6-dione] came in with a maximal degradation (Dmax) in assay [1] of 45.1%. For the same molecule, in assay [2], half-maximal degradation (DC50) was put at 33.7 nM, the greatest degradation seen (Dmax) turned out to be 63.3% and the “Fold Selectivity SMARCA4/2” value is recorded as 297.00.
For `Cn1ccc(OC2(C(=O)N3CC4(CN(CCC5CCN(c6ccc(C7CCC(=O)NC7=O)c(F)c6)CC5)C4)C3)CCN(c3cnnc(-c4ccccc4O)c3)CC2)n1` (racemic) [Example 66, rac-3-(2-fluoro-4-(4-(2-(6-(1-(6-(2-hydroxyphenyl)pyridazin-4-yl)-4-((1-methyl-1H-pyrazol-3-yl)oxy)piperidine-4-carbonyl)-2,6-diazaspiro[3.3]heptan-2-yl)ethyl)piperidin-1-yl)phenyl)piperidine-2,6-dione], in that order: 20.7%, 10.6 nM, 73.7% and 947.
`O=C1CCC(c2ccc(OC3CCN(C(=O)C4CCN(C(=O)C5(c6ccccc6)CCN(c6cnnc(-c7ccccc7O)c6)CC5)CC4)CC3)cc2)C(=O)N1` (racemic) [Example 13, rac-(3R)-3-(4-{[1-(1-{1-[6-(2-hydroxyphenyl)pyridazin-4-yl]-4-phenylpiperidine-4-carbonyl}piperidine-4-carbonyl)piperidin-4-yl]oxy}phenyl)piperidine-2,6-dione]: the Dmax came to 12.3% in assay [1] and 40.3% in assay [2]. For the same molecule, the “Fold Selectivity SMARCA4/2” value in assay [2] was found to be 1.
In assay [1], `CN(C(=O)C1(c2ccccc2)CCN(c2cnnc(-c3ccccc3O)c2)CC1)C1CCN(CCC2CCN(c3ccc([C@H]4CCC(=O)NC4=O)cc3)CC2)CC1` [Example 192, N-{1-[2-(1-{4-[(3R)-2,6-dioxopiperidin-3-yl]phenyl}piperidin-4-yl)ethyl]piperidin-4-yl}-1-[6-(2-hydroxyphenyl)pyridazin-4-yl]-N-methyl-4-phenylpiperidine-4-carboxamide] had a 50% degradation concentration (DC50) of 128 nM and a maximal degradation (Dmax) of 46.4%. In addition, in assay [2], it took 4.58 nM to reach half-maximal degradation (DC50), the maximal degradation (Dmax) was determined as 88.8% and the “Fold Selectivity SMARCA4/2” value is on record as 28.
Take `O=C1CCC(c2ccc(N3CCOC4(CCN(CC(=O)N5CCC6(CC5)CN(C(=O)C5(c7ccccc7)CCN(c7cnnc(-c8ccccc8O)c7)CC5)C6)CC4)C3)cc2)C(=O)N1` (racemic) [Example 152, rac-(3R)-3-(4-{9-[2-(2-{1-[6-(2-hydroxyphenyl)pyridazin-4-yl]-4-phenylpiperidine-4-carbonyl}-2,7-diazaspiro[3.5]nonan-7-yl)-2-oxoethyl]-1-oxa-4,9-diazaspiro[5.5]undecan-4-yl}phenyl)piperidine-2,6-dione]: the Dmax in assay [1] is 45.4%. Also, in assay [2], it took 68.2 nM to reach half-maximal degradation (DC50), the maximal degradation (Dmax) worked out at 66.5% and the “Fold Selectivity SMARCA4/2” value came to 147.
As to `O=C1CC[C@H](c2ccc(N3CCC(CCN4CCC(OCC(F)(F)F)(C(=O)NCC5(c6ccccc6)CCN(c6cnnc(-c7ccccc7O)c6)CC5)CC4)CC3)cc2)C(=O)N1` (racemic) [Example 105, rac-(r)-1-(2-(1-(4-(2,6-dioxopiperidin-3-yl)phenyl)piperidin-4-yl)ethyl)-n-((1-(6-(2-hydroxyphenyl)pyridazin-4-yl)-4-phenylpiperidin-4-yl)methyl)-4-(2,2,2-trifluoroethoxy)piperidine-4-carboxamide], in assay [1], half-maximal degradation (DC50) was put at 57.5 nM and the Dmax is 73.1%. For the same molecule, in assay [2], the 50% degradation concentration (DC50) amounted to 4.98 nM, the maximal degradation (Dmax) worked out at 92.2% and the “Fold Selectivity SMARCA4/2” value came to 12.
The molecule `O=C1CC[C@H](c2ccc(N3CCC(CCN4CCC[C@@H]4C(=O)NCC4(c5ccccc5)CCN(c5cnnc(-c6ccccc6O)c5)CC4)CC3)cc2)C(=O)N1` (racemic) [Example 107, (r)-1-(2-(1-(4-((rs)-2,6-dioxopiperidin-3-yl)phenyl)piperidin-4-yl)ethyl)-n-((1-(6-(2-hydroxyphenyl)pyridazin-4-yl)-4-phenylpiperidin-4-yl)methyl)pyrrolidine-2-carboxamide] registered a Dmax in assay [1] of 29.4%. In assay [2], half-maximal degradation (DC50) was put at 41.3 nM, the maximal degradation (Dmax) is 58.8% and the “Fold Selectivity SMARCA4/2” value was 242.
For the molecule `CN(C(=O)C1(Oc2ccccc2)CCN(c2cnnc(-c3ccccc3O)c2)CC1)C1CCN(CC2CCN(c3ccc([C@H]4CCC(=O)NC4=O)cc3)CC2)C2(CC2)C1` (mixture of isomers) [Example 168, N-[(7RS)-4-[(1-{4-[(3R)-2,6-dioxopiperidin-3-yl]phenyl}piperidin-4-yl)methyl]-4-azaspiro[2.5]octan-7-yl]-1-[6-(2-hydroxyphenyl)pyridazin-4-yl]-N-methyl-4-phenoxypiperidine-4-carboxamide], in assay [1], the DC50 was found to be 113 nM and the Dmax came to 77.3%. In assay [2], the 50% degradation concentration (DC50) was 18.4 nM, the Dmax was 90.6% and the “Fold Selectivity SMARCA4/2” value is listed as 6.
Molecule `O=C1CC[C@H](c2ccc(OCC3CCN(CC4CCN(C(=O)C5(c6ccccc6)CCN(c6cnnc(-c7ccccc7O)c6)CC5)CC4)CC3)cc2)C(=O)N1` [Example 36, (3R)-3-[4-({1-[(1-{1-[6-(2-hydroxyphenyl)pyridazin-4-yl]-4-phenylpiperidine-4-carbonyl}piperidin-4-yl)methyl]piperidin-4-yl}methoxy)phenyl]piperidine-2,6-dione] yielded a maximal degradation (Dmax) in assay [1] of 27.4%. Besides, in assay [2], the half-maximal degradation concentration (DC50) came to 32.3 nM, the Dmax came out at 63.9% and the “Fold Selectivity SMARCA4/2” value is given as 309.98.
For the molecule `Cn1c(=O)n(C2CCC(=O)NC2=O)c2ccc(N3CCC(CN4CCC(NC(=O)C5(c6ccccc6)CCN(c6cnnc(-c7ccccc7O)c6)CC5)CC4)CC3)cc21` (racemic) [Example 158, rac-N-{1-[(1-{1-[(3R)-2,6-dioxopiperidin-3-yl]-3-methyl-2-oxo-2,3-dihydro-1H-1,3-benzodiazol-5-yl}piperidin-4-yl)methyl]piperidin-4-yl}-1-[6-(2-hydroxyphenyl)pyridazin-4-yl]-4-phenylpiperidine-4-carboxamide], in assay [1], it took 1.36 nM to reach half-maximal degradation (DC50) and the greatest degradation seen (Dmax) amounted to 88.5%. Moreover, in assay [2], it took 0.44 nM to reach half-maximal degradation (DC50), the maximal degradation (Dmax) stood at 92% and the “Fold Selectivity SMARCA4/2” value is 3.
For `COc1ccccc1C1(C(=O)N(C)C2CCN(CCC3CCN(c4ccc([C@H]5CCC(=O)NC5=O)c(F)c4)CC3)CC2)CCN(c2cnnc(-c3ccccc3O)c2)CC1` [Example 85, N-{1-[2-(1-{4-[(3R)-2,6-dioxopiperidin-3-yl]-3-fluorophenyl}piperidin-4-yl)ethyl]piperidin-4-yl}-1-[6-(2-hydroxyphenyl)pyridazin-4-yl]-4-(2-methoxyphenyl)-N-methylpiperidine-4-carboxamide], the greatest degradation seen (Dmax) in assay [1] stood at 41.9%. In addition, in assay [2], the DC50 amounted to 8.19 nM, the Dmax is 90.9% and the “Fold Selectivity SMARCA4/2” value amounted to 1220.

The values are drawn from patent US20250051344A1, “BIFUNCTIONAL SELECTIVE DEGRADERS OF SMARCA2 AND THERAPEUTIC USES THEREOF” (Nurix Therapeutics, Inc., priority 2023, published 2025).
